Data on six compounds can be found in US9783509B2, “Six-membered C-N-linked aryl sulfide derivatives and aryl sulfoxide derivatives as pest conrol agents” (BAYER CROPSCIENCE AKTIENGESELLSCHAFT, priority 2013, dated 2017).

Read-outs that look alike come from different tables or passages of the source.

In series [1] the test system is southern root-knot nematode (Meloidogyne incognita). In words: Meloidogyne incognita test (sand, lettuce, acetone solvent, 14 days). The class given is in vivo. The settings on record: application rate 20 ppm, after 14 days. Put shortly:
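Active ingredient in acetone diluted with water, added to sand with nematode egg/larvae suspension and lettuce seeds. Efficacy scored after 14 days from root gall formation (100% = no galls; 0% = as untreated control).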

Series [2] relates to larvae of the mustard beetle (Phaedon cochleariae). In words: Phaedon cochleariae spray test. In kind it is in vivo. Conditions: application rate 500 g/ha, after 7 days. The procedure: Phaedon cochleariae—Spray Test
Solvent: 78.0 parts by weight of acetone • • 1.5 parts by weight of dimethylformamide
(§1) Emulsifier: alkylaryl polyglycol ether
To produce an appropriate active ingredient formulation, 1 part by weight of active ingredient is dissolved using the specified parts by weight of solvent and made up with water containing an emulsifier concentration of 1000 ppm until the desired concentration is attained. To produce further test concentrations, the preparation is diluted with emulsifier-containing water.
Discs of Chinese cabbage leaves (Brassica pekinensis) are sprayed with an active ingredient formulation of the desired concentration and, after drying, populated with larvae of the mustard beetle (Phaedon cochleariae).
After 7 days, the efficacy in % is determined. 100% means that all the beetle larvae have been killed; 0% means that no beetle larvae have been killed.

For series [3], the system named is greenhouse red spider mite (Tetranychus urticae). In words: Tetranychus urticae spray test, OP-resistant (bean plants). The class given is in vivo. The settings on record: application rate 20 ppm, after 7 days. The protocol:
Tetranychus urticae—Spray Test, OP-Resistant
(§2) Solvent: 7 parts by weight of dimethylformamide
as §1
(§3) To produce an appropriate active ingredient formulation, 1 part by weight of active ingredient is dissolved using the specified parts by weight of solvent and made up with water containing an emulsifier concentration of 1000 ppm until the desired concentration is attained. To produce further test concentrations, the preparation is diluted with emulsifier-containing water. If the addition of ammonium salts or/and penetrants is required, these are each added in a concentration of 1000 ppm to the formulation solution.
Bean plants (Phaseolus vulgaris) heavily infested by all stages of the greenhouse red spider mite (Tetranychus urticae) are treated by spraying with the active ingredient formulation in the desired concentration.
After 7 days, the efficacy in % is determined. 100% means that all the spider mites have been killed; 0% means that none of the spider mites have been killed.

Series [4] can be described thus: log P by reversed-phase HPLC analogously to OECD Guideline 117. The class given is physicochemical. Conditions: for LogP[a] / chromatographic logP: [a] acidic range; for LogP[b]: [b] neutral range, pH 7.8, ammonium hydrogencarbonate/acetonitrile; for chromatographic logP: reversed-phase C18 HPLC column. Put shortly: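 Retention on reversed-phase C18 HPLC (LC-MS), acidic runs at pH 2.7 with formic acid or trifluoroacetic acid/acetonitrile gradients, neutral runs at pH 7.8 with 0.001 molar ammonium hydrogencarbonate/acetonitrile. log P obtained by linear interpolation of retention times against unbranched alkan-2-ones (C3–C16) of known log P.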

Series [5] concerns engorged adult female cattle ticks (Boophilus microplus). Briefly: Boophilus microplus injection test. In kind it is in vivo. Conditions: application rate 20 μg/animal, assessed after 7 days. The procedure:
Boophilus microplus—Injection Test
Solvent: dimethyl sulphoxide
To produce an appropriate active ingredient formulation, 10 mg of active ingredient are mixed with 0.5 ml of solvent and the concentrate is diluted with solvent to the desired concentration.
1 μl of the active ingredient solution is injected into the abdomen of 5 engorged adult female cattle ticks (Boophilus microplus). The animals are transferred into dishes and kept in a climate-controlled room.
The efficacy is assessed after 7 days by laying of fertile eggs. Eggs which are not visibly fertile are stored in a climate-controlled cabinet until the larvae hatch after about 42 days. An efficacy of 100% means that none of the ticks has laid any fertile eggs; 0% means that all the eggs are fertile.

Series [6] has as its system southern root-knot nematode (Meloidogyne incognita). Briefly: Meloidogyne incognita test (soil drench, lettuce, 21 days). The class given is in vivo. The settings on record: application rate 8 ppm, after 21 days. The procedure:
Meloidogyne incognita Test
as §2
Emulsifier: 2.5 parts by weight of alkylaryl polyglycol ether
To produce an appropriate active ingredient formulation, 1 part by weight of active ingredient is mixed with the stated amounts of solvent and emulsifier, and the concentrate is diluted with water to the desired concentration, it being necessary to include the volume of soil which is drenched in the calculation. It should be noted that a concentration of 20 ppm of emulsifier in the soil is not exceeded. To produce further test concentrations, water is used for dilution.
Pots filled with soil (loamy sand) are watered with the active ingredient solution. An egg/larvae suspension of the southern root-knot nematode (Meloidogyne incognita) is added, lettuce seeds are scattered over the surface of the soil, and they are covered over with quartz sand. The lettuce seeds germinate and the plants develop. The galls develop on the roots
After 21 days, the nematicidal efficacy in % is determined by the formation of galls. 100% means that no galls have been found; 0% means that the number of galls on the treated plants corresponds to the untreated control.

For series [7], the system named is greenhouse red spider mite (Tetranychus urticae). In words: Tetranychus urticae spray test, OP-resistant (bean leaf discs). The class given is in vivo. The settings on record: after 6 days. Put shortly: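 Compound dissolved in acetone/DMF and diluted in water with 1000 ppm alkylaryl polyglycol ether emulsifier, then sprayed on bean leaf discs infested with all stages of OP-resistant T. urticae. Mortality in % scored after 6 days (100% = all mites killed).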

Series [8] has as its system green peach aphid (Myzus persicae). In words: Myzus persicae spray test (bell pepper plants). In kind it is in vivo. Conditions: application rate 20 ppm, after 6 days. The procedure: Myzus persicae—Spray Test
as §2, §1, §3
Bell pepper plants (Capsicum annuum) heavily infested by the green peach aphid (Myzus persicae) are treated by spraying with the active ingredient formulation in the desired concentration.
After 6 days, the kill in % is determined. 100% means that all the aphids have been killed; 0% means that no aphids have been killed.

In series [9] the test system is adult cat fleas (Ctenocephalides felis). Briefly: Ctenocephalides felis in vitro contact test with adult cat fleas. The class given is in vivo. The settings on record: application rate 5 μg/cm^2 (=500 g/ha), after 48 h. The protocol: Ctenocephalides felis—In Vitro Contact Tests with Adult Cat Fleas
For the coating of the test tubes, 9 mg of active ingredient are first dissolved in 1 ml of acetone p.a. and then diluted to the desired concentration with acetone p.a. 250 μl of the solution are distributed homogeneously on the inner walls and base of a 25 ml test tube by turning and rocking on an orbital shaker (rocking rotation at 30 rpm for 2 h). With 900 ppm active ingredient solution and internal surface 44.7 cm^2, given homogeneous distribution, an area-based dose of 5 μg/cm^2 is achieved.
After the solvent has been evaporated off, the tubes are populated with 5-10 adult cat fleas (Ctenocephalides felis), sealed with a perforated plastic lid and incubated in a horizontal position at room temperature and ambient humidity. After 48 h, the efficacy is determined. To this end, the test tubes are stood upright and the fleas are knocked to the base of the tube. Fleas which remain motionless at the base or move in an uncoordinated manner are considered to be dead or moribund.
100% efficacy means that all the fleas were dead or moribund. 0% efficacy means that no fleas were harmed.

The mark [10] stands for this setting: pH 2.7, formic acid (or trifluoroacetic acid)/acetonitrile.

As for `Cc1cc(F)c(-n2ccc(=O)n(CC(F)(F)F)c2=O)cc1[S+]([O-])CC(F)(F)F` (racemic) [compound 60], the “nematicidal efficacy (formation of galls)” value (“nematicidal efficacy” for short) in [1] came to 100%. In addition, in [2], the “efficacy (beetle larvae killed)” value is 100%. For the same compound, the “efficacy (spider mites killed)” value in series [3] was found to be 100%. Also, the “LogP[a]” value in series [4] (setting [10]) was determined as 2.31. In addition, the “LogP[b]” value in [4] is recorded as 2.34.

As to `Cc1cc(F)c(-n2ncc(=O)n(C)c2=O)cc1[S+]([O-])CC(F)(F)F` (single isomer, unassigned; (+)) [Ex. No. 29, (+)-2-[2-fluoro-4-methyl-5-(2,2,2-trifluoroethylsulphinyl)phenyl]-4-methyl-1,2,4-triazine-3,5-dione], in [5], the “efficacy (no fertile eggs laid)” value was found to be 100%. In [6], the “nematicidal efficacy” value came out at 100%. Also, the “efficacy (spider mites killed)” value in series [3] is 100%. Also, in [4] (setting [10]), the “LogP[a]” value is on record as 1.95. In addition, in series [4], the “LogP[b]” value stood at 1.9.

For `Cn1c(=O)cnn(-c2ccc(Cl)c(SCC(F)(F)F)c2)c1=O` [compound 31], the “efficacy (spider mites killed)” value in series [7] (application rate 100 g/ha) came out at 100%. Besides, the “efficacy (kill of aphids)” value in series [8] stood at 97%. In addition, in series [4] (setting [10]), the “LogP[a]” value amounted to 3. Moreover, in series [4], the “LogP[b]” value stood at 2.91.

In the case of `Cc1cc(F)c(-n2ncc(=O)n(C)c2=O)cc1[S+]([O-])CC(F)(F)F` (centres unmarked) [Ex. No. 2, 2-{2-Fluoro-4-methyl-5-[(2,2,2-trifluoroethyl)sulphinyl]phenyl}-4-methyl-1,2,4-triazine-3,5(2H,4H)-dione], in series [9], the “efficacy (fleas dead or moribund)” value is reported as 100%. Also, the “efficacy (no fertile eggs laid)” value in [5] was 100%. The pest or weed control at 20 ppm in [1] (Meloidogyne incognita, 336 h, read-out: nematicidal efficacy (formation of galls)) came out at 90%. The pest or weed control at 500 g/ha in series [7] (Tetranychus urticae, foliar, 144 h, application rate 500 g/ha, read-out: efficacy (spider mites killed)) was determined as 90%. In addition, the chromatographic logP in series [4] (pH 2.7, running text, pH 2.7, read-out: log P[a]) worked out at 1.94; in series [4] (pH 2.7, table column, pH 2.7, formic acid (or trifluoroacetic acid)/acetonitrile, read-out: LogP[a]), 1.94.

For `Cc1cc(F)c(-n2ncc(=O)n(CC(F)(F)F)c2=O)cc1[S+]([O-])CC(F)(F)F` (single isomer, unassigned) [compound 50], the “nematicidal efficacy” value in series [6] is on record as 99%. In series [3], the “efficacy (spider mites killed)” value came to 100%. In addition, in series [4] (setting [10]), the “LogP[a]” value stood at 2.62. Besides, the “LogP[b]” value in series [4] stood at 2.57.

Consider `Cc1cc(F)c(-n2ncc(=O)n(CC(F)(F)F)c2=O)cc1SCC(F)(F)F` [compound 10], for which the “efficacy (no fertile eggs laid)” value in [5] amounted to 100%. For the same compound, the “nematicidal efficacy” value in series [1] is listed as 100%. In addition, the “efficacy (beetle larvae killed)” value in [2] is 83%. In series [7] (application rate 500 g/ha), the “efficacy (spider mites killed)” value is 90%. Further, in series [4] (setting [10]), the “LogP[a]” value worked out at 3.65.
